Results as given in US7888372B2, “Compositions and methods for modulating bone mineral deposition” (National Institutes of Health (NIH), priority 2001, dated 2011).

Tests used:
TNAP activity = biological target: T1, TNAP activity (Mus musculus, UniProt P09242); set-up: endogenous in cells; conditions: cited from earlier work
T1 sequence (P09242 18-501): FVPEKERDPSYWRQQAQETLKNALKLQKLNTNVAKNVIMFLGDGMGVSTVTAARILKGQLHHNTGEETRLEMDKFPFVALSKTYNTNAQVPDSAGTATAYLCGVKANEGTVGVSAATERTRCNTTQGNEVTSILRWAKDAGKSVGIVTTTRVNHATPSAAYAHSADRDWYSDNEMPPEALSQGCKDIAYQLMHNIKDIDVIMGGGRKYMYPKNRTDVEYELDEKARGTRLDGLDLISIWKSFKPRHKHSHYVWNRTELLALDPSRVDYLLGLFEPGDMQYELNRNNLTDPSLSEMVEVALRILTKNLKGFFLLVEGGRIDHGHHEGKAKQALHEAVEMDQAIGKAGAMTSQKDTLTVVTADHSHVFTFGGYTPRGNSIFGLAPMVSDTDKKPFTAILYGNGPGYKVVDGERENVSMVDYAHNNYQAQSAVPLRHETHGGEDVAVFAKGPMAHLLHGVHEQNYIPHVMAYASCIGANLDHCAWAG

[1] = tested on: PC-1-/- osteoblast cultures; experiment: Addition of recombinant proteins or PPi to PC-1-/- osteoblast cultures; format: cell-based, mouse
[2] = tested on: ank/ank osteoblast cultures; experiment: Addition of recombinant proteins or PPi to ank/ank osteoblast cultures; format: cell-based, mouse
TNAP knock-out mice = TNAP knock-out mice of Waymire et al.; cited from earlier work
TNAP ko osteoblasts = experiment: Mineralization of bone nodules in primary TNAP ko osteoblast cultures (von Kossa); format: cell-based, mouse; conditions: added to the ko osteoblast culture medium
Description: Primary cultures of osteoblasts were isolated from calvariae of 1-4 day old pups that were hybrids of C57Bl/6×129/J mouse strains with wild-type, heterozygote and homozygote TNAP null genotypes. Isolation was performed by a slightly modified version of the time sequential collagenase technique described by Boonekamp et al. (Proc. Kon. Ned. Akad. Wet. B87:371-382, 1984). In brief, calvariae of the same genotype were pooled and three 10 minute incubations in 4 mM EDTA, 137 mM NaCl, 2.7 mM KCl, 3 mM NaH2PO4, pH 7.2, were performed, followed by seven 10 minute digestions in EDTA-free buffer, containing 180 units/ml collagenase type II (Worthington Biochemical Corporation, Lakewood, N.J.). All isolations were performed at 37° C. in a shaking water bath. The last five collagenase digestions, containing an enriched cell population of osteoblastic phenotype, were pooled and seeded at 4×10^4 cells/cm^2 in αMEM (Gibco BRL, Grand Island, N.Y.), containing 10% heat-inactivated FCS, penicillin (50 U/ml) and streptomycin ([…]).
To study mineralization, we used conditions under which we observed that osteoblasts normally formed von Kossa stain positive and alizarin red positive nodules at 7-10 days in culture. In brief, primary calvarial osteoblasts were cultured in complete αMEM media as described above, supplemented with β-glycerophosphate (10 mM) every third day and L-ascorbic acid (50 μg/ml) daily. MC3T3-E1 cells (Johnson et al., J. Bone Min. Res. 14:883-892, 1999) were maintained in the same medium, and for each experiment were plated at 80% confluence (1×10^6 cells in a 10 cm tissue-culture plastic dish in 5 ml) and received β-glycerophosphate and L-ascorbic acid as for primary osteoblasts above.
To evaluate the ability of primary osteoblasts to form and mineralize bone nodules in vitro, wild-type (wt), heterozygous and knock-out (ko) osteoblasts were cultured in media supplemented with ascorbic acid, using β-glycerophosphate as phosphate source. […] The extent of bone mineral deposition in these cultures was confirmed by quantifications of deposited calcium. […]

For N=C(N)NCCCC[C@H](N)C(=O)O [L-homoarginine], the “kind of inhibitor of TNAP activity” value (TNAP activity) is given as “specific uncompetitive inhibitors of TNAP activity”.

In the case of O=P(O)(O)OP(=O)(O)O [PPi, inorganic pyrophosphate, reference compound], the osteopontin expression levels ([1]; osteoblast cultures deficient in PC-1) is reported as “corrected their osteopontin expression levels to those comparable to wild-type” and the osteopontin expression levels ([2]; osteoblast cultures deficient in ANK protein) is reported as “corrected their osteopontin expression levels to those comparable to wild-type”.

For c1ccc([C@H]2CN3CCSC3=N2)cc1 [levamisole], the “kind of inhibitor of TNAP activity” value (TNAP activity) is listed as “specific uncompetitive inhibitors of TNAP activity”.

In the case of Cc1ncc(CO)c(CO)c1O.Cl [vitamin B6], the epileptic seizures (TNAP knock-out mice) is given as “partially rescue the epileptic seizures” and the life span (TNAP knock-out mice) is given as “prolonging their life”.

With “recombinant osteopontin: recombinant osteopontin added to osteoblast cultures” the “mineralization capacity (matrix calcification)” value ([1]; PC-1-/- osteoblast cultures) was “restored to normal” and the “mineralization capacity (matrix calcification)” value ([2]; ank/ank osteoblast cultures) was “restored to normal”.

B1: [V365I]TNAP: enzymatically inactive mutant of TNAP (protein, UniProt P05186 18-501, looked up, variant V365I)
Alkaline phosphatase, …: LVPEKEKDPKYWRDQAQETLKYALELQKLNTNVAKNVIMFLGDGMGVSTVTAARILKGQLHHNPGEETRLEMDKFPFVALSKTYNTNAQVPDSAGTATAYLCGVKANEGTVGVSAATERSRCNTTQGNEVTSILRWAKDAGKSVGIVTTTRVNHATPSAAYAHSADRDWYSDNEMPPEALSQGCKDIAYQLMHNIRDIDVIMGGGRKYMYPKNKTDVEYESDEKARGTRLDGLDLVDTWKSFKPRYKHSHFIWNRTELLTLDPHNVDYLLGLFEPGDMQYELNRNNVTDPSLSEMVVVAIQILRKNPKGFFLLVEGGRIDHGHHEGKAKQALHEAVEMDRAIGQAGSLTSSEDTLTVVTADHSHIFTFGGYTPRGNSIFGLAPMLSDTDKKPFTAILYGNGPGYKVVGGERENVSMVDYAHNNYQAQSAVPLRHETHGGEDVAVFSKGPMAHLLHGVHEQNYVPHVMAYAACIGANLGHCAPAS
In the case of B1, the induction of mineralization (TNAP ko osteoblasts) is reported as “nor enzymatically inactive mutants of TNAP, such as [R54C]TNAP or [V365I]TNAP, were able to induce mineralization”.
